Measured values from patent US4925652A, “Nitroxyl compounds, and diagnostic media based thereon useful for enhancing NmR imaging” (Schering Aktiengesellschaft, priority 1983, dated 1990).

Experiment: Acute toxicity (LD50) in mice after intravenous injection into the tail vein, survival after 7 days
Conditions: in vivo, mouse, i.v. tail vein, pH 7-7.5, survival after 7 days
Protocol: Mice weighing 18-22 g were given varying quantities of the compound as a […] aqueous solution per kg, adjusted to pH 7-7.5 by intravenous injection into the tail vein. After 7 days, the survival rate of the mice was determined and, from this value, the LD50 in mmol/kg of animal was calculated in the usual way.
(J. Comput. Assist. Tomogr. 7, 1983, 184.)

With CC1(C)C=C(C(=O)NC(CO)C(O)CO)C(C)(C)N1[O] (centres unmarked) [Compound 3, 2,2,5,5-Tetramethyl-3-pyrroline-1-oxyl-3-carboxylic Acid (1,3,4-Trihydroxybut-2-yl)amide] as the molecule, how does the LD50 at 168 h read?
Its LD50 at 168 h is 20000 µmol/kg.

For CC1(C)C=C(C(=O)NCC(O)CO)C(C)(C)N1[O] (centres unmarked) [Compound 4, 2,2,5,5-Tetramethyl-3-pyrroline-1-oxyl-3-carboxylic Acid (2,3-Dihydroxypropyl)amide], which LD50 at 168 h is on record?
Its LD50 at 168 h is 15000 µmol/kg.

With CC1(C)CC(C(=O)NC(CO)C(O)CO)C(C)(C)N1[O] (centres unmarked) [Compound 5, 2,2,5,5-Tetramethylpyrrolidine-1-oxyl-3-carboxylic Acid (1,3,4-Trihydroxybut-2-yl)amide] as the molecule, how does the LD50 at 168 h read?
Its LD50 at 168 h is 25000 µmol/kg.

With CC1(C)CC(C(=O)O)C(C)(C)N1[O] (centres unmarked) [Compound 2, 2,2,5,5-Tetramethylpyrrolidine-1-oxyl-3-carboxylic Acid, reference compound] as the molecule, how does the LD50 at 168 h read?
The LD50 at 168 h was 10000 µmol/kg.

Which LD50 at 168 h does the source give for CC1(C)CC(NC(=O)CCC(=O)O)CC(C)(C)N1[O] [Compound 1, Succinic Acid (2,2,6,6-tetramethyl-1-oxylpiperidin-4-yl)-amide, reference compound] here?
The LD50 at 168 h was 10000 µmol/kg.
